In patent US11365450B2, “Group classification and prognosis prediction system based on biological characteristics of gastric cancer” (Novomics Co., Ltd., priority 2017, dated 2022):
“Also recorded” adds a separate entry of the source.

Key:
Type in all cases: cell-based, Human
[1] = test system: Hs746T cells; test: in vitro tumor spheroid formation assay; details: LY2157299 50 μM; 30 days of cell culture
Protocol: Tumor spheroid formation assay: Ten cells were cultured in 50 μl of DMEM/F12 (Gibco) supplemented with bFGF, EGF, B27, 10% FBS, and 1% antibiotics in a 96-well plate. After 30 days of cell culture, the number of tumor spheroids in each well was counted. In addition, LY2157299 (50 μM) was administered to examine the effect of the TGF-β inhibitor on tumor sphere formation.

[2] = test system: Hs746T cells; test: invasion assay (HUVEC monolayer transwell); details: LY2157299 50 μM; 48 hours incubation
Protocol: Invasion assay: For the assay, 2×10^4 HUVEC cells were placed in a culture medium (M199) in a fibronectin-coated transwell, followed by coating the bottom of the transwell with 0.2% gelatin and cell culture for 48 hours until monolayer formation. Thereafter, 1×10^5/50 μl Hs746T and NCI-N87 cells containing FBS-free CellTracker™ (Molecular Probes, C2925) were separately added to the transwell. A culture medium containing 10% FBS was added to the lower chamber. After incubation for 48 hours, upper cells of the membrane were removed using a cotton swab. Cells on the lower membrane were lysed in 200 μl of a lysis buffer at room temperature for 2 hours to 3 hours. Fluorescence was measured with Ex/Em 492/517. To examine the effect of a TGF-β inhibitor on cell invasion ability, 50 μM of LY2157299 (AdooQ, California, USA) was administered.

[3] = test system: Hs746T cells; test: in vitro scratch wound-healing (migration) assay; details: LY2157299 50 μM; wound width after 72 hours
Protocol: Migration assay: Hs746T and NCI-N87 cells were grown into monolayers in a culture medium containing 10% FBS and 1% antibiotics. When confluency reached 70%, the cell monolayers were scratched with a 100-μl pipette tip. After 72 hours, the wound width was measured and normalized by the wound width measured immediately after scratching. LY2157299 (50 μM) was administered to evaluate the effect of the TGF-β inhibitor on cell migration.

Cc1cccc(-c2nn3c(c2-c2ccnc4ccc(C(N)=O)cc24)CCC3)n1 [LY2157299]
delayed; also recorded: suppression: 3D spheroid formation ability of Hs746T cells [1] | invasion ability of Hs746T cells [2] | wound-healing ability of Hs746T cells [3]
